{"source": "patent US20230329237A1", "about": "“MUSA PLANTS, FIELDS […] PLANTS” (Taminco BV, priority 2020, published 2023)", "key": {"Foc TR4 chlamydospores": {"tested_on": "Foc TR4 chlamydospores", "assay": "In vitro efficacy of metam sodium on Foc TR4 chlamydospores (colonies on PDA plates)", "format": "cell-based, Fusarium oxysporum f. sp. cubense Tropical Race 4", "experimental": "Foc TR4 chlamydospores were extracted from infested soil and incubated with a dilution series of metam sodium for 5 min and 60 min at room temperature. Thereafter, the samples were diluted 10×to get reduction of the treatment and sufficient dilution of chlamydospores to avoid lack of resolution when grown on plate. Aliquots of 100 μl were plated on PDA plates in duplicate and incubated for 3 days at 25° C. Plates were photographed and scored."}, "Cavendish banana plants": {"tested_on": "Cavendish banana plants", "assay": "Field trial: growth and development of banana plants transplanted into metam sodium treated soil", "format": "in vivo, Musa (Cavendish banana)", "experimental": "The analyses described in this example were carried out in the Philippines in a field in which Musa trees (specifically bananas) were to be planted, in the spring (beginning in March). Final determinations were carried out in September of the same year.\n(§1) Metam Sodium Application. Metam sodium 510 SL (equivalent to 42% w/w) was applied to soil at the following doses: 0 liters per hectare (L/ha), 750 L/ha, 1500 L/ha, 2250 L/ha, 3000 L/ha.\n(§2) Prior to injection, soil was prepared using a rototiller to break the soil structure from 0 cm to 80 cm deep, allowing for the smooth and even injection application by an injection machine. The soil was then leveled and made uniform, and the metam sodium was applied at two depths: 30 cm and 60 cm, using injection methods. The temperature was at a minimum of 10 °C and soil humidity was between 50 and 60% holding capacity, allowing the applied product to transform from metam sodium (liquid) to MITC (gas).\n(§3) The application was made using an injection machine wherein the machine lowered shanks and began moving forward such that the shanks lowered to a depth of 60 cm and injectors applied the metam sodium into the soil. When the injection at 60 cm was complete, the process was repeated for the entire field at 30 cm. The treated soil in the field was then sealed using a packer roller (which was part of the injection machinery, located at the back end of the machine), after each application.\nPlant Selection and Transplantation. Cavendish banana plants were used for this investigation. In order to avoid plants already contaminated by other soil, all plants were produced in vitro using art-recognized methods. Plants were transplanted into the field 14 days after the final soil reading was taken (21 days after treatment).\nData Gathering. Data were gathered at monthly intervals beginning three months after banana plants were transplanted. A total of three data collection sessions were conducted. Data including the number of leaves, plant height, and girth size were collected."}, "[1]": {"tested_on": "F. oxysporum f. sp. cubense", "assay": "Panama disease analysis of soil samples from the treated field (Komada medium)", "format": "in vivo, Fusarium oxysporum f. sp. cubense Tropical Race 4", "conditions": "any of the treated groups (750-3000 L/ha); any day post application", "experimental": "as §1, §2, §3\n(§4) Soil Analysis. Soil samples were obtained at 20, 40, and 60 cm before application and every 24 hours beginning 48 hours after application, for seven days.\nPlant Pathology Analysis. […]"}, "parasitic nematodes": {"tested_on": "parasitic nematodes", "assay": "Nematode analysis of soil samples from the treated field", "format": "in vivo", "conditions": "any tested soil samples", "experimental": "as §4\nPlant Pathology Analysis. Soil samples used for Panama Disease and nematode analyses were aseptically isolated in culture medium and incubated for seven days at room temperature. Organisms were identified as follows: 20 grams of composite soil sample was diluted with 40 mL distilled water (dH2O); 1 drop of Tween 20 detergent was added, and the sample mixed. A 1 mL aliquot was taken from the solution and diluted with 9 mL dH2O; three further serial dilutions were made. From each dilution, 100 μL were spread on solid Komada growth medium (Sun et al., Phytopathology 68: 1672-1673, 1978). Growth could be seen 7 days after inoculation."}, "[2]": {"conditions": "750 L/ha, six months after treatment"}, "[3]": {"conditions": "1500 L/ha, six months after treatment"}, "[4]": {"conditions": "2250 L/ha, six months after treatment"}, "[5]": {"conditions": "3000 L/ha, six months after treatment"}}, "data": [{"smiles": "CNC(=S)[S-].[Na+]", "note": "[metam sodium, sodium N-methyldithiocarbamate]", "values": [{"measurement": "reducing the number of surviving chlamydospores, measured as growing colonies", "setting": "Foc TR4 chlamydospores; 100× dilution, prolonged incubation (60 vs 5 minutes)", "value": "more effective"}, {"measurement": "efficacy on Foc TR4 colony growth on plates", "setting": "Foc TR4 chlamydospores; dilution of 10×, incubation time 5 minutes", "value": "effective"}, {"measurement": "efficacy on Foc TR4 colony growth on plates", "setting": "Foc TR4 chlamydospores; dilution of 100×, 5 and 60 minutes", "value": "less effective"}, {"measurement": "reduction in viability of Foc TR4 chlamydospores", "setting": "Foc TR4 chlamydospores; first test, dilutions from 1000 up to 10×10^6-fold, 60 min", "value": "No significant reduction in viability"}, {"measurement": "efficacy against Foc TR4 chlamydospores under in vitro conditions", "setting": "Foc TR4 chlamydospores; overall, dependent on high concentrations", "value": "effective against Foc TR4 chlamydospores"}, {"measurement": "efficacy on surviving chlamydospores", "setting": "Foc TR4 chlamydospores; second test, 10× and 100× dilutions", "value": "(partially) effective"}, {"measurement": "number of chlamydospores that survived", "setting": "Foc TR4 chlamydospores; second test, dilutions of 1000× and more", "value": "did not affect the number of chlamydospores that survived"}, {"measurement": "average girth size of banana plant, increase", "setting": "Cavendish banana plants; 750 L/ha", "value": "~1", "unit": "cm"}, {"measurement": "average height of banana plant, increase", "setting": "Cavendish banana plants; 750 L/ha", "value": "~5", "unit": "cm"}, {"measurement": "percent of plants at either shooting or bagging stage", "setting": "Cavendish banana plants; [2]", "value": 11, "unit": "%"}, {"measurement": "percent of plants at shooting stage", "setting": "Cavendish banana plants; [2]", "value": 9, "unit": "%"}, {"measurement": "plants reaching bagging stage", "setting": "Cavendish banana plants; [2]", "value": "did not have a meaningful effect"}, {"measurement": "average girth size of banana plant, increase", "setting": "Cavendish banana plants; 1500-3000 L/ha", "value": "4-6 cm"}, {"measurement": "average height of banana plant, increase", "setting": "Cavendish banana plants; 1500-3000 L/ha", "value": "20-23 cm"}, {"measurement": "percent of plants at either shooting or bagging stage", "setting": "Cavendish banana plants; [3]", "value": 28, "unit": "%"}, {"measurement": "percent of plants at shooting stage", "setting": "Cavendish banana plants; [3]", "value": 10, "unit": "%"}, {"measurement": "percent of plants at bagging stage", "setting": "Cavendish banana plants; 1500 to 3000 L/ha, six months after treatment", "value": "11-19%"}, {"measurement": "percent of plants at either shooting or bagging stage", "setting": "Cavendish banana plants; [4]", "value": 27, "unit": "%"}, {"measurement": "percent of plants at shooting stage", "setting": "Cavendish banana plants; [4]", "value": 17, "unit": "%"}, {"measurement": "percent of plants at either shooting or bagging stage", "setting": "Cavendish banana plants; [5]", "value": 35, "unit": "%"}, {"measurement": "percent of plants at shooting stage", "setting": "Cavendish banana plants; [5]", "value": 22, "unit": "%"}, {"measurement": "average number of leaves, increase", "setting": "Cavendish banana plants; regardless of dose applied (750-3000 L/ha), vs 0 L/ha", "value": "roughly 1.5 fold"}, {"measurement": "Foc TR4 in soil (soil contamination)", "setting": "[1]", "value": "No Foc TR4 was detected"}, {"measurement": "parasitic nematodes in soil", "setting": "parasitic nematodes", "value": "no parasitic nematodes were noted"}]}]}
